Measured values: ChEMBL document CHEMBL1201862, “PubChem BioAssay data set” (2004)
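Cultured in 96-well plates, cells were exposed to test compound for 48 hours across five concentrations. Here, GI50 denotes the concentration required for 50% inhibition of growth.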 Activity calls are given as the source filed them. Cut-off read from the data, not from the text of the source: active = GI50 up to about 1.1 µM and inactive = higher.

Legend:
Experiment in all cases: growth of human tumour cells (NCI), 48 h
[1] = test system: SF-539
[2] = test system: A498
[3] = test system: Hs-578T
[4] = test system: UACC-257
[5] = test system: UO-31
[6] = test system: SF-295
[7] = test system: SK-MEL-28
[8] = test system: OVCAR-8
[9] = test system: HT-29
[10] = test system: PC-3
[11] = test system: OVCAR-3
[12] = test system: M14
[13] = test system: SNB-19
[14] = test system: MCF7
[15] = test system: ACHN
[16] = test system: OVCAR-5
[17] = test system: K562
[18] = test system: SR
[19] = test system: HL-60

Measured: GI50

CC(=O)n1c(COS(C)(=O)=O)nc2ccccc21
inactive: [1] > 100 µM | [2] > 100 µM | [3] > 100 µM | [4] > 100 µM | [5] > 100 µM | [6] 54 µM | [7] > 100 µM | [8] > 100 µM | [9] > 100 µM | [10] > 100 µM | [11] 58.6 µM | [12] > 100 µM | [13] > 100 µM | [14] 79.3 µM | [15] > 100 µM | [16] > 100 µM

CC(C)CCc1n[nH]c(=O)n1/N=C\c1ccccc1
inactive: [1] > 100 µM | [17] 83 µM | [2] 49 µM | [3] > 100 µM | [4] > 100 µM | [5] 26.4 µM | [6] > 100 µM | [7] > 100 µM | [8] > 100 µM | [9] > 100 µM | [11] > 100 µM | [12] > 100 µM | [13] > 100 µM | [15] > 100 µM | [16] > 100 µM

N#Cc1c(-c2ccccc2)c(/N=N/c2ccc(Cl)cc2)c(=O)n2c1[nH]c1ccccc12
inactive: [1] > 100 µM | [2] > 100 µM | [4] > 100 µM | [5] 46.9 µM | [6] 76.7 µM | [7] > 100 µM | [8] 90.2 µM | [10] > 100 µM | [11] > 100 µM | [12] > 100 µM | [13] > 100 µM | [14] > 100 µM | [15] > 100 µM | [16] > 100 µM

N#CCCN(CCC#N)c1ccc(/C=C(/NC(=O)c2cc([N+](=O)[O-])ccc2Cl)C(=O)NN)cc1
inactive: [1] > 100 µM | [17] > 100 µM | [2] > 100 µM | [4] > 100 µM | [5] > 100 µM | [6] > 100 µM | [7] > 100 µM | [8] 58.3 µM | [9] > 100 µM | [11] 77.8 µM | [18] 3.94 µM | [12] > 100 µM | [13] > 100 µM | [15] > 100 µM | [16] > 100 µM

CC1(C)CC[C@]2(C(=O)O)CC[C@]3(C)C(=CC[C@@H]4[C@@]5(C)CC[C@@H]6OC(C)(C)OC[C@@]6(C)[C@@H]5CC[C@]43C)[C@H]2C1
inactive: [1] 15.1 µM | [17] 14.9 µM | [2] 15.4 µM | [4] 13.2 µM | [5] 12.1 µM | [6] 5.18 µM | [7] 14.4 µM | [8] 7.64 µM | [9] 4.54 µM | [10] 5.4 µM | [11] 4.54 µM | [18] 10.1 µM | [19] 8.51 µM | [12] 15.5 µM | [13] 17.6 µM | [14] > 10 µM | [15] 3.24 µM | [16] 16.8 µM

COc1ccc(N2C(=O)c3cccnc3S2(=O)=O)cc1
inactive: [1] > 100 µM | [17] > 100 µM | [2] > 100 µM | [4] > 100 µM | [5] > 100 µM | [6] > 100 µM | [7] > 100 µM | [8] > 100 µM | [9] > 100 µM | [10] > 100 µM | [11] > 100 µM | [18] > 100 µM | [19] > 100 µM | [12] > 100 µM | [13] > 100 µM | [14] > 100 µM | [15] > 100 µM | [16] > 100 µM

CN(C)CCNC(=O)C1COc2cc(-c3cc(=O)c4ccccc4o3)ccc2O1 (configuration not stated)
inactive: [1] 17.3 µM | [17] 36.7 µM | [2] 19 µM | [4] 18.5 µM | [5] 74.3 µM | [6] 28.4 µM | [7] 19.5 µM | [8] 23.6 µM | [9] 16.9 µM | [11] 20.5 µM | [18] 15.6 µM | [19] 23.9 µM | [12] 18.1 µM | [13] 23.1 µM | [15] 16.9 µM | [16] 29.6 µM

COc1cc(O)c2c(=O)c3c(C)cccc3n(C)c2c1
inactive: [1] > 10 µM | [17] > 10 µM | [2] > 10 µM | [3] > 10 µM | [4] > 10 µM | [5] > 10 µM | [6] > 10 µM | [7] > 10 µM | [8] > 10 µM | [9] > 10 µM | [10] > 10 µM | [11] > 10 µM | [12] > 10 µM | [13] > 10 µM | [14] > 10 µM | [15] > 10 µM | [16] > 10 µM

CC1(C)OC(=O)N(c2ccccc2)C12C=Cc1cc([N+](=O)[O-])ccc1O2 (configuration not stated)
inactive: [17] 29 µM | [2] 32.4 µM | [3] 19.5 µM | [4] 23.5 µM | [5] 25.1 µM | [6] 37.5 µM | [7] 83.8 µM | [8] 51.6 µM | [9] 35.5 µM | [10] 22.7 µM | [11] 21.7 µM | [18] 19.6 µM | [19] 20.1 µM | [12] 11 µM | [13] 35.5 µM | [15] 97.1 µM | [16] 26.9 µM

N/C(=N\c1ccc(Cl)cc1)NS(=O)(=O)c1cc(Cl)c(Oc2ccc([N+](=O)[O-])cc2Cl)c(Cl)c1
inactive: [1] 16.6 µM | [17] 18.7 µM | [2] 15.5 µM | [3] > 100 µM | [4] 16.6 µM | [5] 18.8 µM | [6] 17.4 µM | [7] 16.9 µM | [8] 16.6 µM | [9] 20.4 µM | [10] 16.2 µM | [11] 16.8 µM | [18] 18.9 µM | [19] 16.7 µM | [12] 18.6 µM | [13] 17.6 µM | [15] 16 µM | [16] 19.7 µM

CC(=O)n1[nH]c(=O)n(-c2ccc(Cl)cc2)c1=O
inactive: [17] > 100 µM | [4] > 100 µM | [5] > 100 µM | [6] > 100 µM | [7] > 100 µM | [8] > 100 µM | [9] > 100 µM | [10] > 100 µM | [11] > 100 µM | [18] > 100 µM | [19] > 100 µM | [12] > 100 µM | [13] > 100 µM | [14] > 100 µM | [15] > 100 µM | [16] > 100 µM

S=C(N/N=C\C=N/NC(=S)N1CCCCCC1)N1CCCCCC1
inactive: [1] 64.9 µM | [17] 9.14 µM | [2] 57.3 µM | [3] 32.8 µM | [4] > 61.9 µM | [5] 8.22 µM | [6] 7.73 µM | [7] > 100 µM | [8] 4.65 µM | [9] 7.28 µM | [10] 12.2 µM | [11] 13.8 µM | [12] 18.1 µM | [13] 34.2 µM | [14] 14.3 µM | [15] 8.59 µM | [16] > 100 µM
